Test results reported in patent US11959083B2, “Immunosuppression-reverting oligonucleotides inhibiting the expression of CD39” (Secarna Pharmaceuticals GmbH & Co. KG, priority 2016, dated 2024).
l = locked nucleic acid (LNA); d = 2'-deoxy (DNA)

What was measured:
[1] = tested on: mCD39 mRNA; experiment: mCD39 mRNA knockdown efficacy screen in A20 cells (single dose, gymnotic delivery, QuantiGene Singleplex); type: cell-based, mouse; conditions: 10 μM, three days, normalized to HPRT1
[2] = tested on: hCD39 mRNA; experiment: IC50 determination / concentration-dependent hCD39 mRNA knockdown in HDLM-2 cells; type: cell-based, human; conditions: for mRNA inhibition: HDLM-2, 3 days; for IC50: hCD39 mRNA, 3 days
Outline: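 Antisense oligonucleotides applied to HDLM-2 cells for 3 days, titrated 10 μM down to 4.5 nM. hCD39 mRNA normalized to HPRT1 and expressed as residual level relative to untreated cells (100); mean of triplicates, IC50 from concentration-response.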

[3] = tested on: human CD8+ T cells; experiment: Proliferation and absolute cell numbers of human CD8+ T cells in presence or absence of extracellular ATP; type: cell-based; conditions: 5 μM oligonucleotide 5 days or 20 μM ARL67156 24 h
Method: FIG. 12A-12C depict human CD8^+ T cells which were labelled with cell proliferation dye, activated with anti-CD3 and treated with 5 μM of the antisense oligonucleotide A04040H (black column) or the control oligonucleotide S6 (white column) for a total treatment time of 5 days. In the vehicle control (striped column), cells were activated with anti-CD3 only. Subsequently, 400 μM of ATP or vehicle were added to cells on day 3 and day 4 after start of oligonucleotide treatment. Furthermore, as additional control, the small molecular CD39-inhibitor ARL67156 trisodium salt was added at 20 μM to cells on day 4, for an incubation time of 24 h (checked column). On day 5 after start of oligonucleotide treatment, (FIG. 12A) CD39 protein expression, (FIG. 12B) proliferation and (FIG. 12C) absolute cell numbers of CD8^+ T cells were analyzed using Flow Cytometry. Depicted is the mean of triplicate wells+/−SD.
In cancer, ATP is released from tumor cells for example after cell death induced by chemotherapy or radiation therapy. Since the CD39-CD73 axis plays an important role for T cell function the effects of A04040H on T cell proliferation in the presence or absence of extracellular ATP were investigated. Human CD8^+ T cells were labelled with cell proliferation dye, activated with anti-CD3 and treated with 5 μM of the antisense oligonucleotide A04040H or the control oligonucleotide S6 for a total treatment time of 5 days. In the vehicle control, cells were activated with anti-CD3 only. Subsequently, 400 μM of ATP or vehicle were added to cells on day 3 and day 4 after start of oligonucleotide treatment. Furthermore, as additional control, the small molecular CD39-inhibitor ARL67156 trisodium salt was added at 20 μM to cells on day 4 for an incubation time of 24 h. On day 5 after start of oligonucleotide treatment, CD39 protein expression, proliferation, and absolute cell numbers of CD8^+ T cells were analyzed using Flow Cytometry.

[4] = absence of extracellular ATP, vs vehicle
[5] = supplementation with 400 μM of ATP

Substance: +C*+G*+T*T*T*A*G*G*C*T*A*T*G*T*A*+C*+T*+T (CGTTTAGGCTATGTACTT; chemistry not fully specified) [neg1, negative control antisense oligonucleotide not hybridizing with CD39, described in WO2014154843 A1, reference compound]
- Relative mCD39 mRNA expression (compared to non-treated cells) [1]: 0.67

Substance: +G*+T*+T*T*G*T*G*T*G*A*G*A*G*C*+T*+T (antisense GTTTGTGTGAGAGCTT; sugars from the 5' end l3 d11 l2, all phosphorothioate, methylation of C not given here) [A04040H]
- mRNA inhibition ([2]; 0.45 nM, Table 12): 0.00%
- mRNA inhibition ([2]; 1.3 nM, Table 12): 0.00%
- mRNA inhibition ([2]; 4 nM, Table 12): 0.00%
- mRNA inhibition ([2]; 0.0045 μM, Table 8): 22.64%
- mRNA inhibition ([2]; 0.0045 μM, Table 9): 12.51%
- mRNA inhibition ([2]; 12 nM, Table 12): 0.00%
- mRNA inhibition ([2]; 0.013 μM, Table 8): 40.51%
- mRNA inhibition ([2]; 0.013 μM, Table 9): 36.68%
- mRNA inhibition ([2]; 0.04 μM, Table 8): 62.42%
- mRNA inhibition ([2]; 0.04 μM, Table 9): 74.68%
- mRNA inhibition ([2]; 40 nM, Table 12): 27.56%
- mRNA inhibition ([2]; 110 nM, Table 12): 69.84%
- mRNA inhibition ([2]; 0.12 μM, Table 8): 88.40%
- mRNA inhibition ([2]; 0.12 μM, Table 9): 93.14%
- mRNA inhibition ([2]; 330 nM, Table 12): 91.26%
- mRNA inhibition ([2]; 0.4 μM, Table 8): 95.94%
- mRNA inhibition ([2]; 0.4 μM, Table 9): 98.42%
- mRNA inhibition ([2]; 1000 nM, Table 12): 97.06%
- mRNA inhibition ([2]; 1.1 μM, Table 8): 98.54%
- mRNA inhibition ([2]; 1.1 μM, Table 9): 99.38%
- mRNA inhibition ([2]; 3.3 μM, Table 8): 99.01%
- mRNA inhibition ([2]; 3.3 μM, Table 9): 99.32%
- mRNA inhibition ([2]; 10 μM, Table 8): 98.98%
- mRNA inhibition ([2]; 10 μM, Table 9): 99.57%
- maximal target inhibition (hCD39 mRNA) ([2]; HDLM-2 cells, compared to untreated cells, first IC50 determination): 99%
- IC50 ([2]; HDLM-2 cells, first screening round (Table 8)): 0.0253 µM
- IC50 ([2]; HDLM-2 cells, second screening round (Table 9)): 0.0215 µM
- IC50 ([2]; HDLM-2 cells, third screening round (Table 12)): 0.0528 µM
- absolute cell numbers of CD8+ T cells [3, 4]: no differences
- proliferation of CD8+ T cells [3, 4]: no differences
- absolute numbers of CD8+ T cells [3, 5]: not altered
- proliferation of CD8+ T cells [3, 5]: not reduced
